Where two headings read alike, the source gives them in different places.
Key:
[1] = molecular target: CK1ε (Homo sapiens, UniProt P49674); assay: CK1ε kinase assay (Caliper LabChip electrophoretic separation of fluoresceinated peptide substrate and product); type: biochemical; conditions: 200 pM CK1ε, 50 μM ATP, 1.5 μM peptide, 22 hours at room temperature
How it was run: (§1)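 Reactions ran 22 hours at room temperature and were stopped with EDTA. Phosphorylated product and unphosphorylated substrate were then separated electrophoretically. Compounds were tested at eleven concentrations, and IC50 values came from non-linear regression.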

[2] = molecular target: CK1δ (Homo sapiens, UniProt P48730); assay: CK1δ kinase assay (Caliper LabChip electrophoretic separation of fluoresceinated peptide substrate and product); type: biochemical; conditions: 200 pM CK1δ, 50 μM ATP, 1.5 μM peptide, 22 hours at room temperature
Sequence of CK1δ (P48730 whole entry): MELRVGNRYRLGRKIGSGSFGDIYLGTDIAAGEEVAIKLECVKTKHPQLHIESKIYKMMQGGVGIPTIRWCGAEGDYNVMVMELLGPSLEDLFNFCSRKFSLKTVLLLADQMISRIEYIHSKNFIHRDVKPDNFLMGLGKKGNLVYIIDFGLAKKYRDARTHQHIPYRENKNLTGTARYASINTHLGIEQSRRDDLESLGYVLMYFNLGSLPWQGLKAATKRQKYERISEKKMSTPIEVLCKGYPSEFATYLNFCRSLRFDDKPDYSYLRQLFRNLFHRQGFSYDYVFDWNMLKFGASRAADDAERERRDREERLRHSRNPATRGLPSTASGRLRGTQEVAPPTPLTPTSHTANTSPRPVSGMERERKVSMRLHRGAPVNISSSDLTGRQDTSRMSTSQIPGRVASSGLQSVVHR
How it was run: as §1

Sequence of CK1ε (P49674 whole entry): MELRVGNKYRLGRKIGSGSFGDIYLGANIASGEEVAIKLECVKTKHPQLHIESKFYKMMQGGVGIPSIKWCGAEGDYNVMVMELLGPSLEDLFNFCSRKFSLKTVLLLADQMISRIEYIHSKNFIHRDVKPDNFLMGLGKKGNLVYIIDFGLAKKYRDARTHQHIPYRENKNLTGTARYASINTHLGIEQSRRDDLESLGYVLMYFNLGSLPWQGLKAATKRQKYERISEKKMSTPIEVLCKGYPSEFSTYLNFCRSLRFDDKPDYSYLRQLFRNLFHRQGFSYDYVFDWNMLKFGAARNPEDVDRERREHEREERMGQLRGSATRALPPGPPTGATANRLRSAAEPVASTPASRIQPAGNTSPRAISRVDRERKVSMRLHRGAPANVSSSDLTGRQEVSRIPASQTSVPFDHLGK

COc1ccc(CCNC(=O)N2CCn3nc(-c4cccc(F)c4)c(C(N)=O)c3C2)cc1 [Compound 47, 2-(3-Fluorophenyl)-N^5-(4-methoxyphenethyl)-6,7-dihydropyrazolo[1,5-a]pyrazine-3,5(4H)-dicarboxamide]
IC50 ([1]; read-out: CK1ε IC50 range): 100 to 2000 nM
IC50 ([2]; read-out: CK1δ IC50 range): 10 to 100 nM

NC(=O)c1c(-c2cccc(Cl)c2)nn2c1CN(C(=O)NC13CCC(c4ccccc4)(CC1)CC3)CC2 [Compound A83, 2-(3-Chlorophenyl)-N^5-(4-phenylbicyclo[2.2.2]octan-1-yl)-6,7-dihydropyrazolo[1,5-a]pyrazine-3,5(4H)-dicarboxamide]
IC50 ([1]; read-out: CK1ε IC50 range): 0.01 to 10 nM
IC50 ([2]; read-out: CK1δ IC50 range): 0.01 to 10 nM

Cn1nccc1NC(=O)N1CCn2nc(-c3cccc(F)c3)c(C(N)=O)c2C1 [Compound 96, 2-(3-Fluorophenyl)-N^5-(1-methyl-1H-pyrazol-5-yl)-6,7-dihydropyrazolo[1,5-a]pyrazine-3,5(4H)-dicarboxamide]
IC50 ([1]; read-out: CK1ε IC50 range): 10 to 100 nM
IC50 ([2]; read-out: CK1δ IC50 range): 10 to 100 nM

CC(C)(C)NC(=O)N1CCn2nc(-c3cccc(-c4ccccc4)c3)c(C(N)=O)c2C1 [Compound 141, 2-([1,1′-Biphenyl]-3-yl)-N^5-(tert-butyl)-6,7-dihydropyrazolo[1,5-a] pyrazine-3,5(4H)-dicarboxamide]
IC50 ([1]; read-out: CK1ε IC50 range): 100 to 2000 nM
IC50 ([2]; read-out: CK1δ IC50 range): 100 to 2000 nM

CC1(C)CC(NC(=O)N2CCn3nc(-c4cccc(Cl)c4)c(C(N)=O)c3C2)C1 [Compound 286]
IC50 ([1]; read-out: CK1ε IC50 range): 0.01 to 10 nM
IC50 ([2]; read-out: CK1δ IC50 range): 0.01 to 10 nM

CC(C)(C)NC(=O)N1CCn2nc(-c3cc(F)cc(C#N)c3)c(C(N)=O)c2C1 [Compound 115, N^5-(tert-Butyl)-2-(3-cyano-5-fluorophenyl)-6,7-dihydropyrazolo[1,5-a] pyrazine-3,5(4H)-dicarboxamide]
IC50 ([1]; read-out: CK1ε IC50 range): 100 to 2000 nM
IC50 ([2]; read-out: CK1δ IC50 range): 10 to 100 nM

N#CC12C3C4C1C1C2C3C41NC(=O)N1CCn2nc(-c3cccc(Cl)c3)c(C(N)=O)c2C1 (stereo not drawn) [Compound A87, N^5-(4-Cyanocuban-1-yl)-2-(3-chlorophenyl)-6,7-dihydropyrazolo[1,5-a]pyrazine-3,5(4H)-dicarboxamide]
IC50 ([1]; read-out: CK1ε IC50 range): 0.01 to 10 nM
IC50 ([2]; read-out: CK1δ IC50 range): 0.01 to 10 nM

COc1ccc([C@H]2C[C@@H](NC(=O)N3CCn4nc(-c5ccc(Cl)c(Cl)c5)c(C(N)=O)c4C3)C2)cc1 [Compound 280, 2-(3,4-dichlorophenyl)-N^5-((1s,3s)-3-(4-methoxyphenyl)cyclobutyl)-6,7-dihydropyrazolo[1,5-a] pyrazine-3,5(4H)-dicarboxamide]
IC50 ([1]; read-out: CK1ε IC50 range): 0.01 to 10 nM
IC50 ([2]; read-out: CK1δ IC50 range): 0.01 to 10 nM

N#CCC1(NC(=O)N2CCn3nc(-c4cccc(Cl)c4)c(C(N)=O)c3C2)CCC1 [Compound 221, 2-(3-Chlorophenyl)-N^5-(1-(cyanomethyl)cyclobutyl)-6,7-dihydropyrazolo[1,5-a] pyrazine-3,5(4H)-dicarboxamide]
IC50 ([1]; read-out: CK1ε IC50 range): 0.01 to 10 nM
IC50 ([2]; read-out: CK1δ IC50 range): 0.01 to 10 nM

NC(=O)c1c(-c2ccc(Cl)c(Cl)c2)nn2c1CN(C(=O)NC1CC3(C1)CC3(F)F)CC2 (single isomer, unassigned) [Compound 325, 2-(3,4-Dichlorophenyl)-N^5-(1,1-difluorospiro[2.3]hexan-5-yl)-6,7-dihydropyrazolo[1,5-a]pyrazine-3,5(4H)-dicarboxamide]
IC50 ([1]; read-out: CK1ε IC50 range): 0.01 to 10 nM
IC50 ([2]; read-out: CK1δ IC50 range): 0.01 to 10 nM

CC1(NC(=O)N2CCn3nc(-c4ccc(F)c(Cl)c4)c(C(N)=O)c3C2)CC(O)C1 (stereo not drawn) [Compound 260, 2-(3-Chloro-4-fluorophenyl)-N^5-(3-hydroxy-1-methylcyclobutyl)-6,7-dihydropyrazolo[1,5-a]pyrazine-3,5(4H)-dicarboxamide]
IC50 ([1]; read-out: CK1ε IC50 range): 0.01 to 10 nM
IC50 ([2]; read-out: CK1δ IC50 range): 0.01 to 10 nM

CC1(NC(=O)N2CCn3nc(-c4ccc(Cl)c(Cl)c4)c(C(N)=O)c3C2)CC(F)(F)C1 [Compound 297, 2-(3,4-Dichlorophenyl)-N^5-(3,3-difluoro-1-methylcyclobutyl)-6,7-dihydropyrazolo[1,5-a] pyrazine-3,5(4H)-dicarboxamide]
IC50 ([1]; read-out: CK1ε): 0.3 nM
IC50 ([1]; read-out: CK1ε IC50 range): 0.01 to 10 nM
IC50 ([2]; read-out: CK1δ): 0.5 nM
IC50 ([2]; read-out: CK1δ IC50 range): 0.01 to 10 nM

NC(=O)c1c(-c2cccc(Cl)c2)nn2c1CN(C(=O)N[C@H]1C[C@@H](OC(F)(F)F)C1)CC2 [Compound 262, 2-(3-Chlorophenyl)-N^5-((1r,3r)-3-(trifluoromethoxy)cyclobutyl)-6,7-dihydropyrazolo[1,5-a] pyrazine-3,5(4H)-dicarboxamide]
IC50 ([1]; read-out: CK1ε IC50 range): 0.01 to 10 nM
IC50 ([2]; read-out: CK1δ IC50 range): 0.01 to 10 nM

Cc1ccc(NC(=O)N2CCn3nc(-c4cccc(F)c4)c(C(N)=O)c3C2)nn1 [Compound 83, 2-(3-Fluorophenyl)-N^5-(6-methylpyridazin-3-yl)-6,7-dihydropyrazolo[1,5-a]pyrazine-3,5(4H)-dicarboxamide]
IC50 ([1]; read-out: CK1ε IC50 range): 10 to 100 nM
IC50 ([2]; read-out: CK1δ IC50 range): 100 to 2000 nM

CC(C)(C)NC(=O)N1CCn2nc(-c3cnc(N4CCOCC4)nc3)c(C(N)=O)c2C1 [Compound 147, N^5-(tert-Butyl)-2-(2-morpholinopyrimidin-5-yl)-6,7-dihydropyrazolo[1,5-a] pyrazine-3,5(4H)-dicarboxamide]
IC50 ([1]; read-out: CK1ε IC50 range): 100 to 2000 nM
IC50 ([2]; read-out: CK1δ IC50 range): 100 to 2000 nM

CC(C)(C)NC(=O)N1Cc2c(C(N)=O)c(-c3ccc(F)c(Cl)c3)nn2C(C(F)(F)F)C1 (single isomer, unassigned) [Compound A127, N^5-(tert-Butyl)-2-(3-chloro-4-fluorophenyl)-7-(trifluoromethyl)-6,7-dihydropyrazolo[1,5-a]pyrazine-3,5(4H)-dicarboxamide]
IC50 ([1]; read-out: CK1ε IC50 range): 10 to 100 nM
IC50 ([2]; read-out: CK1δ IC50 range): 100 to 2000 nM

CC(C)(C)NC(=O)N1CCn2nc(-c3ccccc3C(N)=O)c(C(N)=O)c2C1 [Compound 131, N^5-(tert-Butyl)-2-(2-carbamoylphenyl)-6,7-dihydropyrazolo[1,5-a] pyrazine-3,5(4H)-dicarboxamide]
IC50 ([1]; read-out: CK1ε IC50 range): 100 to 2000 nM
IC50 ([2]; read-out: CK1δ IC50 range): 100 to 2000 nM

CC1CN(C(=O)NC(C)(C)C)Cc2c(C(N)=O)c(-c3ccc(Cl)c(Cl)c3)nn21 (stereo not drawn) [Compound A33, N^5-(tert-Butyl)-2-(3,4-dichlorophenyl)-7-methyl-6,7-dihydropyrazolo[1,5-a]pyrazine-3,5(4H)-dicarboxamide]
IC50 ([1]; read-out: CK1ε IC50 range): 0.01 to 10 nM
IC50 ([2]; read-out: CK1δ IC50 range): 0.01 to 10 nM

CC(CF)(CF)NC(=O)N1CCn2nc(-c3ccc(F)c(Cl)c3)c(C(N)=O)c2C1 [Compound 209, 2-(3-Chloro-4-fluorophenyl)-N^5-(1,3-difluoro-2-methylpropan-2-yl)-6,7-dihydropyrazolo[1,5-a]pyrazine-3,5(4H)-dicarboxamide]
IC50 ([1]; read-out: CK1ε IC50 range): 0.01 to 10 nM
IC50 ([2]; read-out: CK1δ IC50 range): 0.01 to 10 nM

CS[C@H]1C[C@@H](NC(=O)N2CCn3nc(-c4ccc(F)c(Cl)c4)c(C(N)=O)c3C2)C1 [Compound 269, 2-(3-Chloro-4-fluorophenyl)-N^5-((1s,3s)-3-(methylthio)cyclobutyl)-6,7-dihydropyrazolo[1,5-a]pyrazine-3,5(4H)-dicarboxamide]
IC50 ([1]; read-out: CK1ε IC50 range): 0.01 to 10 nM
IC50 ([2]; read-out: CK1δ IC50 range): 0.01 to 10 nM

CC(C)(C)NC(=O)N1CCn2nc(-c3ccc(F)c(Cl)c3)c(C(N)=O)c2C1 [Compound 104]
IC50 ([1]; read-out: CK1ε): 1.3 nM
IC50 ([1]; read-out: CK1ε IC50 range): 0.01 to 10 nM
IC50 ([2]; read-out: CK1δ): 0.7 nM
IC50 ([2]; read-out: CK1δ IC50 range): 0.01 to 10 nM

NC(=O)c1c(-c2ccc(F)c(Cl)c2)nn2c1CN(C(=O)NC1CC(F)(F)C1)CC2 [Compound 291, 2-(3-Chloro-4-fluorophenyl)-N^5-(3,3-difluorocyclobutyl)-6,7-dihydropyrazolo[1,5-a]pyrazine-3,5(4H)-dicarboxamide]
IC50 ([1]; read-out: CK1ε): 1.4 nM
IC50 ([1]; read-out: CK1ε IC50 range): 0.01 to 10 nM
IC50 ([2]; read-out: CK1δ): 0.9 nM
IC50 ([2]; read-out: CK1δ IC50 range): 0.01 to 10 nM

NC(=O)c1c(-c2ccc(F)c(Cl)c2)nn2c1CN(C(=O)N[C@H]1C[C@@H](OC(F)(F)F)C1)CC2 [Compound 261, 2-(3-Chloro-4-fluorophenyl)-N^5-((1r,3r)-3-(trifluoromethoxy)cyclobutyl)-6,7-dihydropyrazolo[1,5-a]pyrazine-3,5(4H)-dicarboxamide]
IC50 ([1]; read-out: CK1ε IC50 range): 0.01 to 10 nM
IC50 ([2]; read-out: CK1δ IC50 range): 0.01 to 10 nM

CC12CC3CC(C)(C1)CC(NC(=O)N1CCn4nc(-c5ccc(Cl)c(Cl)c5)c(C(N)=O)c4C1)(C3)C2 [Compound A92, 2-(3,4-Dichlorophenyl)-N^5-((1r,3R,5S,7r)-3,5-dimethyladamantan-1-yl)-6,7-dihydropyrazolo[1,5-a]pyrazine-3,5(4H)-dicarboxamide]
IC50 ([1]; read-out: CK1ε IC50 range): 0.01 to 10 nM
IC50 ([2]; read-out: CK1δ IC50 range): 0.01 to 10 nM

NC(=O)c1c(-c2ccc(F)c(Cl)c2)nn2c1CN(C(=O)NCC1CC(F)(F)C1)CC2 [Compound 193, 2-(3-Chloro-4-fluorophenyl)-N^5-((3,3-difluorocyclobutyl)methyl)-6,7-dihydropyrazolo[1,5-a] pyrazine-3,5(4H)-dicarboxamide]
IC50 ([1]; read-out: CK1ε IC50 range): 0.01 to 10 nM
IC50 ([2]; read-out: CK1δ IC50 range): 0.01 to 10 nM

NC(=O)c1c(-c2ccc(F)c(Cl)c2)nn2c1CN(C(=O)NC1(C(F)F)CCC1)CC2 [Compound 235, 2-(3-Chloro-4-fluorophenyl)-N^5-(1-(difluoromethyl)cyclobutyl)-6,7-dihydro pyrazolo[1,5-a]pyrazine-3,5(4H)-dicarboxamide]
IC50 ([1]; read-out: CK1ε IC50 range): 0.01 to 10 nM
IC50 ([2]; read-out: CK1δ IC50 range): 0.01 to 10 nM

CC(C)(NC(=O)N1CCn2nc(-c3cccc(Cl)c3)c(C(N)=O)c2C1)C(F)F [Compound 172, 2-(3-Chlorophenyl)-N^5-(1,1-difluoro-2-methylpropan-2-yl)-6,7-dihydropyrazolo[1,5-a] pyrazine-3,5(4H)-dicarboxamide]
IC50 ([1]; read-out: CK1ε IC50 range): 0.01 to 10 nM
IC50 ([2]; read-out: CK1δ IC50 range): 0.01 to 10 nM

CC(C)(O)[C@H](F)CNC(=O)N1CCn2nc(-c3ccc(Cl)c(Cl)c3)c(C(N)=O)c2C1 [Compound 338, (R)-2-(3,4-Dichlorophenyl)-N^5-(2-fluoro-3-hydroxy-3-methylbutyl)-6,7-dihydropyrazolo[1,5-a]pyrazine-3,5(4H)-dicarboxamide]
IC50 ([1]; read-out: CK1ε IC50 range): 0.01 to 10 nM
IC50 ([2]; read-out: CK1δ IC50 range): 0.01 to 10 nM

CC(C)(C)NC(=O)N1CCn2nc(-c3ccncc3)c(C(N)=O)c2C1 [Compound 126, N^5-(tert-Butyl)-2-(pyridin-4-yl)-6,7-dihydropyrazolo[1,5-a]pyrazine-3,5(4H)-dicarboxamide]
IC50 ([1]; read-out: CK1ε): 844 nM
IC50 ([1]; read-out: CK1ε IC50 range): 100 to 2000 nM
IC50 ([2]; read-out: CK1δ): 442 nM
IC50 ([2]; read-out: CK1δ IC50 range): 100 to 2000 nM

— patent publication US9273058B2 (BRISTOL-MYERS SQUIBB COMPANY, priority 2013, dated 2016)
